Calls of active or inactive are those of the source. No cut-off for these calls is given here.
Key:
[1] = Cytotoxicity against human MRC5 cells after 72 hrs by MTT assay; assay type: cell-based
[2] = target: T1, Adenosine kinase (Homo sapiens, UniProt P55263); assay: Activity of human ADK assessed as compound conversion to 5'-phosphate form incubated at 37 degC for 20 mins by HPLC method; design: concentration or dose not given beside the values
Target sequence in this assay (P55263 2-362 limits assumed): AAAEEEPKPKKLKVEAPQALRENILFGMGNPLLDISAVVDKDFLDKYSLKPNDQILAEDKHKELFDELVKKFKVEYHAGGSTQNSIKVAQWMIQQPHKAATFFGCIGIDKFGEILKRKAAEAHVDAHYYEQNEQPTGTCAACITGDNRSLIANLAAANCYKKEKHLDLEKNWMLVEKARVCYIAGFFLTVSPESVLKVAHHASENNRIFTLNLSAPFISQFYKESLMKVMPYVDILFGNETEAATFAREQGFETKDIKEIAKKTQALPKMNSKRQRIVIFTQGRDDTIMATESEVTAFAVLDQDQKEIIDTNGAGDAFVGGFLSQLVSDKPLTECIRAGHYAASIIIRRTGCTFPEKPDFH

[3] = target: Adenosine kinase (Mycobacterium tuberculosis (strain CDC 1551 / Oshkosh), UniProt P9WID4); assay: Inhibition of Mycobacterium tuberculosis ADK using [3H]-adenosine by scintillation counting method
[4] = Cytotoxicity against human BJ cells after 72 hrs by MTT assay; assay type: cell-based
[5] = target: Adenosine kinase (Mycobacterium tuberculosis (strain CDC 1551 / Oshkosh)) (UniProt P9WID4); assay: Activity of Mycobacterium tuberculosis ADK assessed as compound conversion to 5'-phosphate form incubated at 37 degC for 20 mins by HPLC method
[6] = target: T1, Adenosine kinase; assay: Inhibition of human ADK using [3H]-adenosine by scintillation counting method
Target sequence in this assay (P55263 whole entry): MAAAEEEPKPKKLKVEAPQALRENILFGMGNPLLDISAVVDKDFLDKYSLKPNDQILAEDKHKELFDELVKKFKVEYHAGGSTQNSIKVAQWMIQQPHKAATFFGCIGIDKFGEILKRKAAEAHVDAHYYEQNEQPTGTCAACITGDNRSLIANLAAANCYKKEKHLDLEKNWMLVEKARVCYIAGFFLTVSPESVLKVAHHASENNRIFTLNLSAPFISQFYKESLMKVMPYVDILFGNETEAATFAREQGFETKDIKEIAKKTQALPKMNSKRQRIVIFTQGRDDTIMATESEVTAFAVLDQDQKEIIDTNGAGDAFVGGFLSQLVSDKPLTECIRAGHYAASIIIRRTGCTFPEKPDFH

Chain of Adenosine kinase (Mycobacterium tuberculosis (strain CDC 1551 / Oshkosh)) (P9WID4 2-324 limits assumed): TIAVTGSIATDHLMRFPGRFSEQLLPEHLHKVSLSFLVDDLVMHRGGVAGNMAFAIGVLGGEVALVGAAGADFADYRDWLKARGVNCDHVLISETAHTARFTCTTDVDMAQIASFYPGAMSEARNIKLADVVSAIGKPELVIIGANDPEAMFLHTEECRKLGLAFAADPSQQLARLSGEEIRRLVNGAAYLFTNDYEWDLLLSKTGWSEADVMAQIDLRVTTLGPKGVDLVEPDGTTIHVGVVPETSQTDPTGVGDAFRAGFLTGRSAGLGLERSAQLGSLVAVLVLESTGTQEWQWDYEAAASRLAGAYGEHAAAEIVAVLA
Chain of Adenosine kinase (Mycobacterium tuberculosis (strain CDC 1551 / Oshkosh), UniProt P9WID4) (P9WID4 whole entry): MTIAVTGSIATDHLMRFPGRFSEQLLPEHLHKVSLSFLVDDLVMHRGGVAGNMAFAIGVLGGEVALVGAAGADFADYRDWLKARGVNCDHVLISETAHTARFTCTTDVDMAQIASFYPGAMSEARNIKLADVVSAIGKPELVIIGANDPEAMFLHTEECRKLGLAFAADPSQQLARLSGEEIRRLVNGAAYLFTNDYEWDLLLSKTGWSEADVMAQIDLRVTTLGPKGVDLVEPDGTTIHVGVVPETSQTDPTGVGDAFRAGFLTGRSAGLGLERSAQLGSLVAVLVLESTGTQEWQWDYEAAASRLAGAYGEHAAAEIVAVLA

SMILES | CC50 at 72 h [1] [µM] | Activity [2] [%] | IC50 [3] [µM] | CC50 at 72 h [4] [µM] | Activity [5] | IC50 [6] [µM]
OC[C@H]1O[C@@H](n2ccc3c(-c4nccs4)ncnc32)[C@H](O)[C@@H]1O | 37 | 41 | 0.023 | 0.26 | inactive | > 20
OC[C@H]1O[C@@H](n2cc(Cl)c3c(-c4ccc(F)cc4)ncnc32)[C@H](O)[C@@H]1O | > 50 |  | 0.4 | 49.5 | inactive | > 20
OC[C@H]1O[C@@H](n2cc(F)c3c(-c4ccccc4)ncnc32)[C@H](O)[C@@H]1O | > 50 | 17 | 0.2 | > 50 | inactive | > 10
CCc1ncnc2c1ccn2[C@@H]1O[C@H](CO)[C@@H](O)[C@H]1O | 50 |  | 8.1 | 2.7 | inactive | > 20
Cc1ncnc2c1ccn2[C@@H]1O[C@H](CO)[C@@H](O)[C@H]1O | 0.081 | 54 | 8.8 | 0.098 | inactive | > 10
CCCCCCCCCCCCCCCCCCOP(=O)(O)OC[C@H]1O[C@@H](n2ccc3c(-c4cccs4)ncnc32)[C@H](O)[C@@H]1O |  |  | > 20 |  | inactive | 1.97
OC[C@H]1O[C@@H](n2cc(Cl)c3c(-c4ccco4)ncnc32)[C@H](O)[C@@H]1O | > 50 | 77 | 0.11 | 37.2 | inactive | 0.29
OC[C@H]1O[C@@H](n2ccc3c(-c4c[nH]cn4)ncnc32)[C@H](O)[C@@H]1O | > 50 | 28 | 0.78 | 0.21 | inactive | > 10
CCCCCCCCCCCCCCCCCCOP(=O)(O)OC[C@H]1O[C@@H](n2ccc3c(-c4ccsc4)ncnc32)[C@H](O)[C@@H]1O | > 50 |  | > 20 | > 50 | inactive | 6.35
OC[C@H]1O[C@@H](n2ccc3c(-c4ccsc4)ncnc32)[C@H](O)[C@@H]1O | > 50 | 56 | 0.195 | 21.3 | inactive | > 10
OC[C@H]1O[C@@H](n2cc(F)c3c(-c4nccs4)ncnc32)[C@H](O)[C@@H]1O | > 50 | 75 | 0.028 | 0.63 | inactive | > 20
OCc1ncnc2c1ccn2[C@@H]1O[C@H](CO)[C@@H](O)[C@H]1O | 0.28 | 26 | > 5 | 0.34 | inactive | > 10
OC[C@H]1O[C@@H](n2cc(F)c3c(-c4ccco4)ncnc32)[C@H](O)[C@@H]1O | 29 | 50 | 0.19 | 0.31 | inactive | 1.3
OC[C@H]1O[C@@H](n2ccc3c(-c4cc5ccccc5s4)ncnc32)[C@H](O)[C@@H]1O | > 50 |  | 0.0075 | > 50 | inactive | 0.3
OC[C@H]1O[C@@H](n2ccc3c(-c4cccs4)ncnc32)[C@H](O)[C@@H]1O | > 50 |  | 0.046 | 0.31 | inactive | > 5
OC[C@H]1O[C@@H](n2cc(F)c3c(-c4c[nH]cn4)ncnc32)[C@H](O)[C@@H]1O | > 50 | 11 | 1 | > 50 | inactive | > 20
OC[C@H]1O[C@@H](n2ccc3c(-c4cccnc4)ncnc32)[C@H](O)[C@@H]1O | > 50 |  | 1 | 50 | inactive | > 10
CCCCCCCCCCCCCCCCCCOP(=O)(O)OC[C@H]1O[C@@H](n2ccc3c(-c4cc5ccccc5o4)ncnc32)[C@H](O)[C@@H]1O | > 50 |  | > 20 | > 50 | inactive | 2.9
OC[C@H]1O[C@@H](n2ccc3c(-c4cccc5c4oc4ccccc45)ncnc32)[C@H](O)[C@@H]1O | > 50 |  | 2.35 | > 50 | inactive | 5.26
CCCCCCCCCCCCCCCCCCOP(=O)(O)OC[C@H]1O[C@@H](n2ccc3c(-c4ccco4)ncnc32)[C@H](O)[C@@H]1O | 45.3 |  | > 20 | > 50 | inactive | 2.4
OC[C@H]1O[C@@H](n2cc(F)c3c(-c4ccoc4)ncnc32)[C@H](O)[C@@H]1O | 15.4 |  | 0.15 | 0.35 | inactive | > 10
OC[C@H]1O[C@@H](n2ccc3c(-c4cccc5c4sc4ccccc45)ncnc32)[C@H](O)[C@@H]1O | 43.8 |  | 0.15 | > 50 | inactive | 15.4
CCCCCCCCCCCCCCCCCCOP(=O)(O)OC[C@H]1O[C@@H](n2ccc3c(-c4ccoc4)ncnc32)[C@H](O)[C@@H]1O | > 50 |  | > 20 | 44.2 | inactive | 5.15
COc1ccc(-c2ncnc3c2ccn3[C@@H]2O[C@H](CO)[C@@H](O)[C@H]2O)cc1 | > 50 |  | 0.058 | > 50 | inactive | > 10
OC[C@H]1O[C@@H](n2ccc3c(-c4cc5ccccc5[nH]4)ncnc32)[C@H](O)[C@@H]1O | > 50 |  | 0.04 | > 50 | inactive | 8.35
OC[C@H]1O[C@@H](n2ccc3c(-c4cc5ccccc5o4)ncnc32)[C@H](O)[C@@H]1O | > 50 |  | 0.0145 | > 50 | inactive | 2.1
OC[C@H]1O[C@@H](n2ccc3c(-c4ccccc4)ncnc32)[C@H](O)[C@@H]1O | > 50 |  | 0.12 | 44.1 | inactive | > 10
OC[C@H]1O[C@@H](n2ccc3c(Cc4ccccc4)ncnc32)[C@H](O)[C@@H]1O | > 50 |  | > 20 | 36.9 | inactive | > 20
CCCCCCCCCCCCCCCCCCOP(=O)(O)OC[C@H]1O[C@@H](n2ccc3c(-c4ccccc4)ncnc32)[C@H](O)[C@@H]1O | > 50 |  | > 20 | > 50 | inactive | 4.4
OC[C@H]1O[C@@H](n2ccc3c(-c4cccc5c4Oc4ccccc4S5)ncnc32)[C@H](O)[C@@H]1O | > 50 |  | 1.46 | > 50 | inactive | 3.07

Reference: ChEMBL document CHEMBL3132858, “6-Alkyl-, 6-aryl- or 6-hetaryl-7-deazapurine ribonucleosides as inhibitors of human or MTB adenosine kinase and potential antimycobacterial agents” (Medchemcomm, 2013)
